Results: the NIST ThermoML archive (doi:10.1016/j.jct.2018.03.016)

Conditions: Liquid; for mass density: Vibrating tube method; for speed of sound: Frequency=5 MHz, Single path-length method

CCC(=O)[O-].[NH3+]CCO [2-hydroxyethan-1-aminium propionate]
Conditions | mass density [kg/m3] | speed of sound [m/s]
298.08 K, 10000 kPa | 1124.9 | –
298.1 K, 30000 kPa | 1131.1 | –
298.11 K, 15000 kPa | 1127.6 | –
298.13 K, 35000 kPa | 1132.5 | –
298.15 K, 20000 kPa | 1128.2 | –
298.15 K, 25000 kPa | 1129.4 | –
298.16 K, 100 kPa | 1121.1 | –
303.03 K, 30000 kPa | 1126.3 | –
303.07 K, 25000 kPa | 1124.9 | –
303.07 K, 35000 kPa | 1127.2 | –
303.09 K, 10000 kPa | 1121 | –
303.09 K, 15000 kPa | 1121.8 | –
303.1 K, 20000 kPa | 1123.3 | –
303.15 K, 100 kPa | 1116 | 1554.7
303.15 K, 1000 kPa | – | 1558.7
303.15 K, 2000 kPa | – | 1562.7
303.15 K, 3000 kPa | – | 1566.7
303.15 K, 4000 kPa | – | 1570.7
303.15 K, 5000 kPa | – | 1574.7
303.15 K, 6000 kPa | – | 1578.8
303.15 K, 7000 kPa | – | 1582.9
303.15 K, 8000 kPa | – | 1587
303.15 K, 9000 kPa | – | 1591.1
303.15 K, 10000 kPa | – | 1595.2
303.15 K, 11000 kPa | – | 1599.4
303.15 K, 12000 kPa | – | 1602.1
303.15 K, 13000 kPa | – | 1606.3
303.15 K, 14000 kPa | – | 1610.5
303.15 K, 15000 kPa | – | 1613.3
303.15 K, 16000 kPa | – | 1617.6
303.15 K, 17000 kPa | – | 1620.4
303.15 K, 18000 kPa | – | 1624.6
303.15 K, 19000 kPa | – | 1628.9
303.15 K, 20000 kPa | – | 1633.2
313.14 K, 100 kPa | 1105.3 | –
313.15 K, 100 kPa | – | 1526.8
313.15 K, 1000 kPa | – | 1531.9
313.15 K, 2000 kPa | – | 1535.7
313.15 K, 3000 kPa | – | 1539.5
313.15 K, 4000 kPa | – | 1542.1
313.15 K, 5000 kPa | – | 1546
313.15 K, 6000 kPa | – | 1549.9
313.15 K, 7000 kPa | – | 1553.8
313.15 K, 8000 kPa | – | 1557.8
313.15 K, 9000 kPa | – | 1561.7
313.15 K, 10000 kPa | – | 1565.7
313.15 K, 11000 kPa | – | 1569.7
313.15 K, 12000 kPa | – | 1573.7
313.15 K, 13000 kPa | – | 1577.7
313.15 K, 14000 kPa | – | 1581.7
313.15 K, 15000 kPa | – | 1585.8
313.15 K, 16000 kPa | – | 1589.9
313.15 K, 17000 kPa | – | 1594
313.15 K, 18000 kPa | – | 1598.1
313.15 K, 19000 kPa | – | 1602.2
313.15 K, 20000 kPa | – | 1606.4
313.16 K, 15000 kPa | 1111.3 | –
313.17 K, 10000 kPa | 1110.2 | –
313.17 K, 35000 kPa | 1117.8 | –
313.18 K, 20000 kPa | 1113.3 | –
313.18 K, 30000 kPa | 1116.2 | –
313.19 K, 25000 kPa | 1114.8 | –
323.09 K, 10000 kPa | 1098.3 | –
323.1 K, 100 kPa | 1093 | –
323.1 K, 25000 kPa | 1103.9 | –
323.12 K, 30000 kPa | 1105.5 | –
323.14 K, 15000 kPa | 1099.7 | –
323.14 K, 20000 kPa | 1102 | –
323.14 K, 35000 kPa | 1107.3 | –
323.15 K, 100 kPa | – | 1506.1
323.15 K, 1000 kPa | – | 1509.8
323.15 K, 2000 kPa | – | 1513.6
323.15 K, 3000 kPa | – | 1517.3
323.15 K, 4000 kPa | – | 1521.1
323.15 K, 5000 kPa | – | 1524.9
323.15 K, 6000 kPa | – | 1528.7
323.15 K, 7000 kPa | – | 1533.8
323.15 K, 8000 kPa | – | 1537.6
323.15 K, 9000 kPa | – | 1541.5
323.15 K, 10000 kPa | – | 1545.4
323.15 K, 11000 kPa | – | 1549.2
323.15 K, 12000 kPa | – | 1553.2
323.15 K, 13000 kPa | – | 1558.4
323.15 K, 14000 kPa | – | 1562.3
323.15 K, 15000 kPa | – | 1566.3
323.15 K, 16000 kPa | – | 1568.9
323.15 K, 17000 kPa | – | 1572.9
323.15 K, 18000 kPa | – | 1576.9
323.15 K, 19000 kPa | – | 1581
323.15 K, 20000 kPa | – | 1585
333.08 K, 35000 kPa | 1096.1 | –
333.09 K, 10000 kPa | 1084.9 | –
333.09 K, 15000 kPa | 1087.4 | –
333.09 K, 25000 kPa | 1091.8 | –
333.09 K, 30000 kPa | 1093.9 | –
333.1 K, 20000 kPa | 1089.7 | –
333.12 K, 100 kPa | 1079.6 | –
333.15 K, 100 kPa | – | 1474.9
333.15 K, 1000 kPa | – | 1479.7
333.15 K, 2000 kPa | – | 1484.6
333.15 K, 3000 kPa | – | 1488.3
333.15 K, 4000 kPa | – | 1493.2
333.15 K, 5000 kPa | – | 1497
333.15 K, 6000 kPa | – | 1501.9
333.15 K, 7000 kPa | – | 1505.7
333.15 K, 8000 kPa | – | 1509.5
333.15 K, 9000 kPa | – | 1514.5
333.15 K, 10000 kPa | – | 1518.3
333.15 K, 11000 kPa | – | 1523.3
333.15 K, 12000 kPa | – | 1527.2
333.15 K, 13000 kPa | – | 1531
333.15 K, 14000 kPa | – | 1534.9
333.15 K, 15000 kPa | – | 1540
333.15 K, 16000 kPa | – | 1543.8
333.15 K, 17000 kPa | – | 1547.7
333.15 K, 18000 kPa | – | 1551.6
333.15 K, 19000 kPa | – | 1555.5
333.15 K, 20000 kPa | – | 1559.5
343.15 K, 100 kPa | – | 1449.3
343.15 K, 1000 kPa | – | 1453
343.15 K, 2000 kPa | – | 1456.8
343.15 K, 3000 kPa | – | 1461.8
343.15 K, 4000 kPa | – | 1466.7
343.15 K, 5000 kPa | – | 1471.7
343.15 K, 6000 kPa | – | 1475.5
343.15 K, 7000 kPa | – | 1480.5
343.15 K, 8000 kPa | – | 1485.5
343.15 K, 9000 kPa | – | 1489.3
343.15 K, 10000 kPa | – | 1494.3
343.15 K, 11000 kPa | – | 1499.4
343.15 K, 12000 kPa | – | 1503.2
343.15 K, 13000 kPa | – | 1508.2
343.15 K, 14000 kPa | – | 1513.3
343.15 K, 15000 kPa | – | 1517.2
343.15 K, 16000 kPa | – | 1522.2
343.15 K, 17000 kPa | – | 1526.1
343.15 K, 18000 kPa | – | 1530
343.15 K, 19000 kPa | – | 1533.8
343.15 K, 20000 kPa | – | 1537.7
343.17 K, 100 kPa | 1066 | –
343.17 K, 20000 kPa | 1076.6 | –
343.17 K, 25000 kPa | 1079 | –
343.17 K, 30000 kPa | 1081.8 | –
343.18 K, 15000 kPa | 1074.3 | –
343.18 K, 35000 kPa | 1084.1 | –
343.19 K, 10000 kPa | 1070.6 | –
353.15 K, 100 kPa | – | 1416
353.15 K, 1000 kPa | – | 1421
353.15 K, 2000 kPa | – | 1426.1
353.15 K, 3000 kPa | – | 1431.2
353.15 K, 4000 kPa | – | 1436.3
353.15 K, 5000 kPa | – | 1441.4
353.15 K, 6000 kPa | – | 1446.5
353.15 K, 7000 kPa | – | 1451.7
353.15 K, 8000 kPa | – | 1456.8
353.15 K, 9000 kPa | – | 1463.1
353.15 K, 10000 kPa | – | 1467
353.15 K, 11000 kPa | – | 1473.3
353.15 K, 12000 kPa | – | 1478.4
353.15 K, 13000 kPa | – | 1482.4
353.15 K, 14000 kPa | – | 1487.5
353.15 K, 15000 kPa | – | 1492.6
353.15 K, 16000 kPa | – | 1496.5
353.15 K, 17000 kPa | – | 1500.4
353.15 K, 18000 kPa | – | 1504.4
353.15 K, 19000 kPa | – | 1509.5
353.15 K, 20000 kPa | – | 1513.3
